Laboratory results from paper PMC8953086, “Repurposing Avasimibe to Inhibit Bacterial Glycosyltransferases” (Pathogens, 2022).

Tests used:
[1] = molecular target: SseK1 (Salmonella enterica, UniProt A0A0H3NK84); test: biochemical
[2] = molecular target: NleB (Citrobacter rodentium, UniProt A0A482PDI9); test: biochemical
Sequence of NleB (A0A482PDI9 whole entry, looked up): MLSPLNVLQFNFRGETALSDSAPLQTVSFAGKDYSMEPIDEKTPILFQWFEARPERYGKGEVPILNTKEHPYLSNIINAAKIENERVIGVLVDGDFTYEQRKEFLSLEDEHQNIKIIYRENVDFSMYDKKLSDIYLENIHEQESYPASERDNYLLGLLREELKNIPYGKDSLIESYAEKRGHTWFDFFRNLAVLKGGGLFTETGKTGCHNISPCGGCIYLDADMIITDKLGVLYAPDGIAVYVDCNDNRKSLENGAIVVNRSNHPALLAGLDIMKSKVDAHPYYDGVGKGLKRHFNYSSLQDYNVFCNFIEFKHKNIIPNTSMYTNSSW

Sequence of SseK1 (A0A0H3NK84 whole entry, looked up): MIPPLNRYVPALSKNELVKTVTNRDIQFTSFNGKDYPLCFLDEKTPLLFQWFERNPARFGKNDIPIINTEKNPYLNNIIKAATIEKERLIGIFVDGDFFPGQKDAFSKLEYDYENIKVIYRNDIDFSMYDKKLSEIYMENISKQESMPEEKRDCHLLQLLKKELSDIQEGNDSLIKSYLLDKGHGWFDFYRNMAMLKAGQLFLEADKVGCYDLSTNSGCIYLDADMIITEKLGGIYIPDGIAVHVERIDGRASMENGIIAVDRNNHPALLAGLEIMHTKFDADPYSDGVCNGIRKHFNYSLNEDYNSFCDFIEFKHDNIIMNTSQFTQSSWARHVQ

CC(C)c1cc(C(C)C)c(CC(=O)NS(=O)(=O)Oc2c(C(C)C)cccc2C(C)C)c(C(C)C)c1 [avasimibe]
IC50 [1]: ~10 µM | IC50 [2]: ~10 µM
